We go through 1 compound from patent publication US5679640A, “Immunosuppressant peptides” (priority 1995, dated 1997).

Series [1] concerns the target T1, DR4w4 (Homo sapiens, UniProt P01903+P01911, A100K/A169T/F76Y/I96L/K127E/L162R/M171V/N62H/P40V/Q125Y/R42H/S133A/S149N/S66Y/V115G/V209L/W38E).
T1 construct: EBV-transformed homozygous cell lines were used as a source of DR molecules; endogenous in cells; host or cells: Preiss or Beh (EBV-transformed human B cell lines, DR4 Dw4 homozygous); lysate purified on a monoclonal antibody LB3.1 column
As to the kind of experiment: DR-peptide binding assay, DR4w4. To be noted: Table 6, binding affinity relative to HA 307-319 = 1.

A short description of series [2]: in vitro. To be noted: human, serum.
For series [3], the system named is DR4w14. As to the kind of experiment: DR-peptide binding assay, DR4w14. The arrangement: species or system human. To be noted: Table 6, […].
Protocol: DR-peptide binding assay. Purified DR molecules (10-1,000 nM) were incubated with 10 nM ^125 I-radiolabeled peptide for 48 hours in the presence of added protease inhibitors. […] The final concentrations of protease inhibitors were: 1 mM PMSF, 1.3 mM 1,10-phenanthroline, 73 μM pepstatin A, 8 mM EDTA, 6 mM N-ethyl maleimide, and 200 μM Nα-p-tosyl-L-lysine chloromethyl ketone (TLCK). The final detergent concentration in the incubation mixture was 0.05% NP-40. Several of the peptides screened were hydrophobic and required DMSO to maintain solubility and reduce peptide adsorption to surfaces. In these instances peptide stock solutions were prepared in neat DMSO, and the final DMSO concentration in the incubation mixture was adjusted to 5%. […] The DR-peptide complexes were separated from free peptide by gel filtration on a Sephadex G50 (Pharmacia Fine Chemicals, Piscataway, N.J.) column (23×1.3 cm), as previously described. […] The columns were eluted using PBS (0.5% NP-40, 0.1% NAN3) collected in 1 ml fractions, which were then assayed for radioactivity. The fraction of peptide bound to DR (α) relative to the total amount of offered peptide was determined as the ratio of peptide in the void volume to the total peptide recovered. The α was corrected by subtracting the negative control (^125 I-peptide incubated for two days at room temperature in the presence of protease inhibitors and 120 μg/ml of unlabeled peptide, but in the absence of any DR).
To obtain a figure that positively correlated with the binding affinity, the data were expressed as relative binding values.
For series [4], the target named is T2, HLA-DR1 (Homo sapiens, UniProt P01903+P01911, A100R/D57E/F55L/F60I/F76Y/I96L/L162R/M171V/P40L/Q125E/R42F/V115G/Y59C).
T2 construct: EBV-transformed homozygous cell lines were used as a source of DR molecules; endogenous in cells; host or cells: LG-2 (EBV-transformed human B cell line, DR1 homozygous); lysate purified on a monoclonal antibody LB3.1 column
Briefly: DR-peptide binding assay, DR1. To be noted: Table 6, binding affinity relative to HA 307-319 = 1.

Non-standard residues stand in square brackets, D forms with d. Residues, ends and D or L forms follow the SMILES beside them. *: point of attachment. Acetyl(1-adamantyl) = O=C(CC12CC3CC(CC(C3)C1)C2)*

Turning to `C[C@H](NC(=O)CC12CC3CC(CC(C3)C1)C2)C(=O)N[C@@H](C)C(=O)N[C@@H](C)C(=O)N[C@@H](CCCCN)C(=O)N[C@H](C(=O)N[C@@H](C)C(=O)N[C@@H](C)C(=O)N[C@@H](C)C(=O)N[C@@H](Cc1ccccc1)C(=O)N[C@H](C)C(=O)O)[C@@H](C)O` ({Acetyl(1-adamantyl)}-AAAKTAAAF[dA]-OH; C-terminus assumed), the DR4w4 result in series [1] is given as “++ (affinity greater than 1.0)”. The same compound displayed a half-life at 50 µg/mL in series [2] of 7.2 h. In addition, the DR4w14 result in series [3] was “++ (affinity greater than 1.0)”. The DR1 entry in series [4] is on record as “+ (0.51 to 1.0)”.

As a reminder, the half-life is how long it takes for the measured level to halve.
